Laboratory results from patent EP2303842B1, “A process for producing lercanidipine.HCl form V” (Recordati Ireland Limited, priority 2008, dated 2010).
Structures can show the parent of a compound that is named as a salt.

Assay: Solubility determination in water, HCl 0.1 M and organic solvents (shaken suspensions, HPLC assay of the supernatant)
Format: physicochemical
Details: 25°C, shaken 24h, 1440 min
Protocol: For this purpose, solubility determination at RT of FI, FII and FV in water, HCl 0.1 M and some organic solvents has been carried out as described in the experimental section.
Suspensions in different solvents, ranging in concentration from 20 mg/mL to 400 mg/mL, depending on the solubility, were shaken with thermomixer at 25°C, […] for 24h. An aliquot was taken, centrifuged for 5 minutes at 13000 rpm, the supernatant was transferred in HPLC vials, opportunely diluted and assayed. For aqueous solvent the supernatant was further filtered with a 0.2 µm PVDF filter and centrifuged for 5 minutes at 8000 rpm.
Solubility data (mg/mL) obtained are gathered in Table 2. Table 2: solubility
HPLC-DAD: HP 1050 separation module controlled by HP Chem-station. Method:
Standard and calibration: automatic three point calibration (0.5 mg/mL, 1.0 mg/mL, 1.5 mg/mL), including the zero, using HP Chem-station program.

[1] = solvent H2O, supernatant filtered 0.2 µm PVDF
[2] = solvent HCl 0.1M, supernatant filtered 0.2 µm PVDF

SMILES	Solubility (solvent ACN) [mg/mL]	Solubility (solvent EtOH) [mg/mL]	Solubility [1] [mg/mL]	Solubility [2] [mg/mL]	Solubility (solvent MeOH) [mg/mL]	Solubility (solvent acetone) [mg/mL]
COC(=O)C1=C(C)NC(C)=C(C(=O)OC(C)(C)CN(C)CCC(c2ccccc2)c2ccccc2)C1c1cccc([N+](=O)[O-])c1 (single isomer, unassigned) [FI, Lercanidipine.HCl Form I]	13.8	28.2	1.6	0.20	263.9	9.4
COC(=O)C1=C(C)NC(C)=C(C(=O)OC(C)(C)CN(C)CCC(c2ccccc2)c2ccccc2)C1c1cccc([N+](=O)[O-])c1 (single isomer, unassigned) [FII, Lercanidipine.HCl Form II]	4.8	10.5	0.30	0.009	83.9	2.7
COC(=O)C1=C(C)NC(C)=C(C(=O)OC(C)(C)CN(C)CCC(c2ccccc2)c2ccccc2)C1c1cccc([N+](=O)[O-])c1 (single isomer, unassigned) [FV, Lercanidipine.HCl Form V]	26.1	46.72	0.96	0.07	221.9	18.5
